Measured values taken from ChEMBL document CHEMBL4400571, “Essential structure of orexin 1 receptor antagonist YNT-707, part III: Role of the 14-hydroxy and the 3-methoxy groups in antagonistic activity toward the orexin 1 receptor in YNT-707 derivatives lacking the 4,5-epoxy ring” (Bioorg Med Chem, 2019).

Legend:
Orexin receptor type 2 = target: T1, Orexin receptor type 2 (Homo sapiens, UniProt O43614); experiment: Antagonist activity at human OX2 receptor expressed in CHOK1 cells assessed as inhibition of orexin-A-induced calcium mobilization preincubated for 15 mins followed by orexin-A addition and measured by FURA 2-AM dye based fluorescence assay; assay type: functional, cell-based
T1 sequence (O43614 whole entry): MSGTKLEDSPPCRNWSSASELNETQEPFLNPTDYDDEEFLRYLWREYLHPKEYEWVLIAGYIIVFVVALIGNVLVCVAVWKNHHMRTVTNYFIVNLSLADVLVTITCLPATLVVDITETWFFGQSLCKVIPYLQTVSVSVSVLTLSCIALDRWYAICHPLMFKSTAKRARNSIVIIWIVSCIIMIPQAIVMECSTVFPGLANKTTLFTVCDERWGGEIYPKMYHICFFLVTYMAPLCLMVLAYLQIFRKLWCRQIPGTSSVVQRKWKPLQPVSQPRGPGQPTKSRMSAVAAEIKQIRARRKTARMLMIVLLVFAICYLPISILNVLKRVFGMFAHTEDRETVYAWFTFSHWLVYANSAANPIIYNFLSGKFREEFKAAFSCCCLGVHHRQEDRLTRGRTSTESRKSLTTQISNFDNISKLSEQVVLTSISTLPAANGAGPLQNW

[1] = target: T2, Orexin/Hypocretin receptor type 1 (Homo sapiens, UniProt O43613); experiment: Antagonist activity at human OX1 receptor expressed in CHOK1 cells assessed as inhibition of orexin-A-induced calcium mobilization preincubated for 15 mins followed by orexin-A addition and measured by FURA 2-AM dye based fluorescence assay; assay type: functional, cell-based
T2 sequence (O43613 whole entry): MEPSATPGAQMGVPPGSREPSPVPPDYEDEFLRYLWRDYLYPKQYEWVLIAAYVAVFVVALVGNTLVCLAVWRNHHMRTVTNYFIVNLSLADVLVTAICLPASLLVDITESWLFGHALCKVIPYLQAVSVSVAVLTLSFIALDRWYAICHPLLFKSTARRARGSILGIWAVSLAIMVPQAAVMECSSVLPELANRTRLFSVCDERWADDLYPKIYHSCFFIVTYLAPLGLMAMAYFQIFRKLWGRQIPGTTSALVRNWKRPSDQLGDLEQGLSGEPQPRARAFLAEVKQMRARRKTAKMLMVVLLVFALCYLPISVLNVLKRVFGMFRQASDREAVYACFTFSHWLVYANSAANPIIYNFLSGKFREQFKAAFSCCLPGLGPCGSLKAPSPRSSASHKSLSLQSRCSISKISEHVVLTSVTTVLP

COc1ccc2c(c1)[C@]13CCN(S(=O)(=O)c4ccccc4)[C@H](C2)[C@]1(O)CC[C@@H](N(C)C(=O)/C=C/c1ccoc1)C3 gave a Ki (Orexin receptor type 2) greater than 10000 nM.
For COc1ccc2c3c1O[C@H]1[C@H](N(C)C(=O)/C=C/c4ccoc4)CC[C@@]4(O)[C@@H](C2)N(S(=O)(=O)c2ccccc2)CC[C@]314, the Ki (Orexin receptor type 2) was greater than 10000 nM.
For COc1ccc2c(c1)[C@]13CCN(S(=O)(=O)c4ccccc4)[C@H](C2)C1=CC[C@H](N(C)C(=O)/C=C/c1ccoc1)C3, the Ki [1] was 502 nM and the Ki (Orexin receptor type 2) was greater than 10000 nM.
Compound COc1ccc2c(c1)[C@]13CCN(S(=O)(=O)c4ccccc4)[C@H](C2)C1=CC[C@@H](N(C)C(=O)/C=C/c1ccoc1)C3 has a Ki [1] of 5.89 nM and a Ki (Orexin receptor type 2) greater than 10000 nM.
For CN(C(=O)/C=C/c1ccoc1)[C@@H]1CC[C@@]2(O)[C@H]3Cc4ccccc4[C@@]2(CCN3S(=O)(=O)c2ccccc2)C1, the Ki [1] was 461 nM and the Ki (Orexin receptor type 2) was greater than 10000 nM.
COc1ccc2c(c1)[C@]13CCN(S(=O)(=O)c4ccccc4)[C@H](C2)[C@@H]1CC[C@H](N(C)C(=O)/C=C/c1ccoc1)C3 was tested, and the Ki [1] was 4.34 nM and the Ki (Orexin receptor type 2) was 79.9 nM.
In the case of COc1ccc2c(c1)[C@]13CCN(S(=O)(=O)c4ccccc4)[C@H](C2)[C@@H]1CC[C@@H](N(C)C(=O)/C=C/c1ccoc1)C3, the Ki [1] is reported as 5.51 nM and the Ki (Orexin receptor type 2) is reported as greater than 10000 nM.
CN(C(=O)/C=C/c1ccoc1)[C@H]1CC[C@@]2(O)[C@H]3Cc4ccccc4[C@@]2(CCN3S(=O)(=O)c2ccccc2)C1 was tested, and the Ki [1] was 9.35 nM and the Ki (Orexin receptor type 2) was 173 nM.
CN(C(=O)/C=C/c1ccoc1)[C@H]1CC[C@@]2(O)[C@H]3CC4=C(CCCC4)[C@@]2(CCN3S(=O)(=O)c2ccccc2)C1 gave a Ki [1] of 7.45 nM and a Ki (Orexin receptor type 2) of 91.9 nM.
CN(C(=O)/C=C/c1ccoc1)[C@@H]1CC[C@@]2(O)[C@H]3CC4=C(CCCC4)[C@@]2(CCN3S(=O)(=O)c2ccccc2)C1 was tested, and the Ki [1] was greater than 10000 nM and the Ki (Orexin receptor type 2) was greater than 10000 nM.
